Data from publication PMC7188713, “Phase 1 study of napabucasin, a cancer stemness inhibitor, in patients with advanced solid tumors” (Cancer Chemotherapy and Pharmacology, 2020).

Tests used:
CSCs = system: CSCs; set-up: method as in PMID 25605917; details: cited from earlier work
[1] = Phase 1 dose-escalation study: safety (DLT, MTD, adverse events); type: in vivo
Experimental: This Phase 1, open-label, dose-escalation study (3 + 3 design) was carried out at the National Cancer Center Hospital East in Japan. Patients received napabucasin 240 mg twice daily (BID) (Cohort 1), 480 mg BID (Cohort 2), or 720 mg BID (Cohort 3). Day 1 was defined as the day the first dose of napabucasin was administered. All patients were hospitalized until PK assessments were completed (Day 30), though patients were permitted to go/stay out during this period at the discretion of the investigators. […] Dose escalation would continue if no DLTs were observed, and if one of the first three patients experienced a DLT within the first cycle an additional three patients would be enrolled. Dose escalation would be halted if ≥ 2 of the first three patients (or ≥ 2 of the six patients, if additional patients were enrolled) experienced a DLT. If ≤ 1 of the patients in Cohort 3 (highest dose) experienced an observable DLT, then three additional patients were enrolled and would receive the highest dose level of napabucasin, and DLTs would be evaluated in the additional patients. Study treatment was given in 28-day cycles until disease progression or intolerable toxicity due to AEs.
Safety endpoints included AEs, drug-related AEs, vital signs, body weight, laboratory values, and 12-lead ECG. All details of AEs were recorded, including the severity of the event. The severity of AEs was classified according to CTCAE v4.0-JCOG. Napabucasin dose could be reduced or interrupted due to AEs if considered necessary by the investigators, and later reinstated if the AE recovered to Grade 2 or lower. It could also be permanently discontinued in patients who met the discontinuation criteria, which included AEs that rendered trial continuation difficult, aggravation of underlying disease, and withdrawal of consent. Body weight was measured at baseline and Day 29 of Cycle 2, and every 28 days in subsequent cycles. Vital signs were measured at baseline, Days 1, 2, 8, 15, and 22 of Cycle 1, Days 29, 36, 43, and 50 of Cycle 2, and every 28 days in subsequent cycles. 12-lead ECG was measured at baseline and Day 57 in Cycle 3, and every 28 days in subsequent cycles. Laboratory values were recorded at baseline, Days 8, 15, and 22 in Cycle 1, Days 29, 36, 43, and 50 in Cycle 2, and every 28 days in subsequent cycles.
The safety and antitumor activity (intention-to-treat [ITT]) analysis populations included all patients that received at least one dose of napabucasin. The DLT analysis population included all patients that received at least one dose of napabucasin with at least 80% compliance ([number of capsules actually ingested/number of capsules that should have been ingested per dose […]] × 100) during the DLT evaluation period, and those patients who experienced DLT during the evaluation period regardless of compliance. The PK population included all patients that received at least one dose of napabucasin and had plasma napabucasin concentration data for at least one-time point after the first dose of napabucasin.

[2] = system: NAD(P)H: quinone oxidoreductase-1; set-up: method as in PMID 31527169; details: results in redox cycling and ROS generation; cited from earlier work
advanced cancer = details: cited from earlier work
[3] = all grades, all cohorts, 14 patients

CC(=O)c1cc2c(o1)C(=O)c1ccccc1C2=O [napabucasin]
Selectivity for CSCs (CSCs): selectively targets CSCs, leaving normal hematopoietic stem cells unaffected | MTD (maximum tolerated dose) ([1]; 28-day cycles, BID dosing): 1440 mg/day | Any drug-related adverse event, Grade 1 ([1]; Cohort 1, 480 mg/day, n = 3): 1 (33.3) Number of patients (%) | Drug-related abdominal pain lower (Grade 1) ([1]; Cohort 1, 480 mg/day, n = 3): 0 (0.0) Number of patients (%) | Drug-related anorexia, Grade 1 ([1]; Cohort 1, 480 mg/day, n = 3): 1 (33.3) Number of patients (%) | Drug-related anorexia, Grade 2 ([1]; Cohort 1, 480 mg/day, n = 3): 0 (0.0) Number of patients (%) | Drug-related anorexia, Grade 3 ([1]; Cohort 1, 480 mg/day, n = 3): 0 (0.0) Number of patients (%) | Drug-related diarrhea, Grade 1 ([1]; Cohort 1, 480 mg/day, n = 3): 1 (33.3) Number of patients (%) | Drug-related nausea (Grade 1) ([1]; Cohort 1, 480 mg/day, n = 3): 0 (0.0) Number of patients (%) | Drug-related rash (Grade 1) ([1]; Cohort 1, 480 mg/day, n = 3): 0 (0.0) Number of patients (%) | Drug-related urinary tract infection (Grade 1) ([1]; Cohort 1, 480 mg/day, n = 3): 0 (0.0) Number of patients (%) | Any drug-related adverse event, Grade 1 ([1]; Cohort 2, 960 mg/day, n = 4): 4 (100) Number of patients (%) | Drug-related abdominal pain lower (Grade 1) ([1]; Cohort 2, 960 mg/day, n = 4): 1 (25.0) Number of patients (%) | Drug-related anorexia, Grade 1 ([1]; Cohort 2, 960 mg/day, n = 4): 0 (0.0) Number of patients (%) | Drug-related anorexia, Grade 2 ([1]; Cohort 2, 960 mg/day, n = 4): 0 (0.0) Number of patients (%) | Drug-related anorexia, Grade 3 ([1]; Cohort 2, 960 mg/day, n = 4): 0 (0.0) Number of patients (%) | Drug-related diarrhea, Grade 1 ([1]; Cohort 2, 960 mg/day, n = 4): 3 (75.0) Number of patients (%) | Drug-related nausea (Grade 1) ([1]; Cohort 2, 960 mg/day, n = 4): 0 (0.0) Number of patients (%) | Drug-related rash (Grade 1) ([1]; Cohort 2, 960 mg/day, n = 4): 1 (25.0) Number of patients (%) | Drug-related urinary tract infection (Grade 1) ([1]; Cohort 2, 960 mg/day, n = 4): 1 (25.0) Number of patients (%) | Any drug-related adverse event, Grade 1 ([1]; Cohort 3, 1440 mg/day, n = 7): 4 (57.1) Number of patients (%) | Any drug-related adverse event, Grade 2 ([1]; Cohort 3, 1440 mg/day, n = 7): 1 (14.3) Number of patients (%) | Any drug-related adverse event, Grade 3 ([1]; Cohort 3, 1440 mg/day, n = 7): 1 (14.3) Number of patients (%) | Drug-related abdominal pain lower (Grade 1) ([1]; Cohort 3, 1440 mg/day, n = 7): 0 (0.0) Number of patients (%) | Drug-related anorexia, Grade 1 ([1]; Cohort 3, 1440 mg/day, n = 7): 0 (0.0) Number of patients (%) | Drug-related anorexia, Grade 2 ([1]; Cohort 3, 1440 mg/day, n = 7): 1 (14.3) Number of patients (%) | Drug-related anorexia, Grade 3 ([1]; Cohort 3, 1440 mg/day, n = 7): 1 (14.3) Number of patients (%) | Drug-related diarrhea, Grade 1 ([1]; Cohort 3, 1440 mg/day, n = 7): 4 (57.1) Number of patients (%) | Drug-related diarrhea, Grade 3 ([1]; Cohort 3, 1440 mg/day, n = 7): 1 (14.3) Number of patients (%) | Drug-related nausea (Grade 1) ([1]; Cohort 3, 1440 mg/day, n = 7): 4 (57.1) Number of patients (%) | Drug-related rash (Grade 1) ([1]; Cohort 3, 1440 mg/day, n = 7): 0 (0.0) Number of patients (%) | Drug-related urinary tract infection (Grade 1) ([1]; Cohort 3, 1440 mg/day, n = 7): 0 (0.0) Number of patients (%) | Initial onset of nausea, most frequently observed ([1]; after the first dose): 1 to 14 days | Drug-related nausea, number of patients ([1]; all cohorts, 14 patients): 4 n | Drug-related vomiting, number of patients ([1]; all cohorts, 14 patients): 3 n | Drug-related anorexia, number of patients [1, 3]: 3 n | Drug-related diarrhea, number of patients [1, 3]: 9 n | Any drug-related adverse event, Grade 1 ([1]; human, in vivo): 9 (64.3) Number of patients (%) | Any drug-related adverse event, Grade 2 ([1]; human, in vivo): 1 (7.1) Number of patients (%) | Any drug-related adverse event, Grade 3 ([1]; human, in vivo): 1 (7.1) Number of patients (%) | Drug-related abdominal pain lower (Grade 1) ([1]; human, in vivo): 1 (7.1) Number of patients (%) | Drug-related anorexia, Grade 1 ([1]; human, in vivo): 1 (7.1) Number of patients (%) | Drug-related anorexia, Grade 2 ([1]; human, in vivo): 1 (7.1) Number of patients (%) | Drug-related anorexia, Grade 3 ([1]; human, in vivo): 1 (7.1) Number of patients (%) | Drug-related diarrhea, Grade 1 ([1]; human, in vivo): 8 (57.1) Number of patients (%) | Drug-related diarrhea, Grade 3 ([1]; human, in vivo): 1 (7.1) Number of patients (%) | Drug-related nausea (Grade 1) ([1]; human, in vivo): 4 (28.6) Number of patients (%) | Drug-related rash (Grade 1) ([1]; human, in vivo): 1 (7.1) Number of patients (%) | Drug-related urinary tract infection (Grade 1) ([1]; human, in vivo): 1 (7.1) Number of patients (%) | Drug-related vomiting (Grade 1) ([1]; human, in vivo): 3 (21.4) Number of patients (%) | Initial onset of diarrhea and vomiting, most frequently observed ([1]; human, in vivo): 1 to 7 days | Patients who experienced drug-related AEs ([1]; human, in vivo): 11 patients | Patients with AEs reported ([1]; human, in vivo): 14 patients | Dose reductions due to AEs ([1]; in vivo): no dose reductions due to AEs | Patients with dose interruptions due to AEs ([1]; in vivo): five | Deaths due to AEs ([1]; n = 14): No patients died due to AEs | Bioactivation [2]: bioactivated by NAD(P)H: quinone oxidoreductase-1 | Dose up to which napabucasin was well tolerated (advanced cancer; 14 cohorts, N = 41): up to 2000 mg/day | Patients with SD as the best response (advanced cancer; Phase 1 dose-escalation study): 65%
